Measured values: PMC12453120, “TrkA of Streptococcus mitis CCUG31611 binds cyclic di-adenosine monophosphate and is required for growth in low potassium conditions” (Microbiology, 2025)

What was measured:
TrkA = molecular target: T1, TrkA (Streptococcus mitis, UniProt A0ACG7RC27); assay: nanoDSF, isothermal FoldAffinity fit; assay type: binding; details: 500 nM TrkA, 150 mM KCl, 20 mM HEPES, 10% glycerol, pH 7.5
T1 construct: gene SM12261_0089; full-length ORF (1-221 aa), N-terminal 6xHis tag kept, pET30b, E. coli BL21(DE3); Ni-NTA + SEC; two bands on SDS-PAGE, both TrkA by MS; MS peptide positions up to 227 include the tag
T1 sequence (A0ACG7RC27 1-221): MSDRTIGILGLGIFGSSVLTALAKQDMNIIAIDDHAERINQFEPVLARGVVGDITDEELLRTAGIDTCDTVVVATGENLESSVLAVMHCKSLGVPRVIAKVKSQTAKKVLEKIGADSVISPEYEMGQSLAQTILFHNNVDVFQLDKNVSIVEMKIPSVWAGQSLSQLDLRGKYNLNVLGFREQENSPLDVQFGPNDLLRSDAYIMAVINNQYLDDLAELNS
Text: nanoDSF, isothermal FoldAffinity fit on TrkA

[1] = molecular target: TrkA of Streptococcus mitis CCUG31611 (SM12261_0089), recombinant with N-terminal 6x His-tag (Streptococcus mitis CCUG31611); assay: SEC; Sepharose 6 Increase 10-300 GL column, AKTA pure; 150 mM KCl, 20 mM HEPES, pH 7.5; flow 0.2 ml/min; MW estimated from a standard curve of gel filtration markers (12,000-200,000 Da), logMW vs VE/V0
[2] = Tiso 52 °C, unreliable (above the highest ligand concentration, 500 µM)

Which “Kd,app (μM)‡” value (TrkA; Tiso 54 °C, unreliable (above the highest ligand concentration, 500 µM)) does the source give for `Nc1ncnc2c1ncn2[C@@H]1O[C@H](COP(=O)(O)O)[C@@H](O)[C@H]1O` [AMP] here?
Its value is 2,050.000 ± 494.975 µM.

With `Nc1ncnc2c1ncn2[C@@H]1O[C@H](COP(=O)(O)OP(=O)(O)OP(=O)(O)O)[C@@H](O)[C@H]1O` [ATP] as the compound, how does the “Kd,app (μM)‡” value (TrkA; [2]) read?
The value was 2,610.000 ± 2390.021 µM.

For `Nc1nc2c(ncn2[C@@H]2O[C@@H]3COP(=O)(O)O[C@H]4[C@@H](O)[C@H](n5cnc6c(=O)[nH]c(N)nc65)O[C@@H]4COP(=O)(O)O[C@H]3[C@H]2O)c(=O)[nH]1` [c-di-GMP], which “Kd,app (μM)‡” value (TrkA; Tiso 54 °C, unreliable (far above the highest ligand concentration, 500 µM)) is on record?
Its value is 100,000.000 ± 0.000 µM.

`Nc1ncnc2c1ncn2[C@@H]1O[C@H](COP(=O)(O)O[C@H]2[C@@H](O)[C@H](n3cnc4c(N)ncnc43)O[C@@H]2COP(=O)(O)O)[C@@H](O)[C@H]1O` [pApA] was tested. Which “Kd,app (μM)‡” value (TrkA; [2]) did it give?
Its value is 1,650.000 ± 494.975 µM.

For “TrkA of Streptococcus mitis CCUG31611 (SM12261_0089), recombinant with N-terminal 6x His-tag (natural protein)”, which stoichiometry N [1] is on record?
The stoichiometry N was 8.
